In ChEMBL document CHEMBL2163275, “The lipogenesis pathway as a cancer target” (J Med Chem, 2011):
One block for each compound: values may come before it.

How the values were obtained:
[1] = target: T1, Fatty acid synthase (Gallus gallus, UniProt P12276); assay: Inhibition of chicken liver FASN ketoreductase activity
[2] = target: T2, ATP-citrate synthase (Homo sapiens, UniProt P53396); assay: Inhibition of human recombinant ACLY
T2 sequence (P53396 whole entry): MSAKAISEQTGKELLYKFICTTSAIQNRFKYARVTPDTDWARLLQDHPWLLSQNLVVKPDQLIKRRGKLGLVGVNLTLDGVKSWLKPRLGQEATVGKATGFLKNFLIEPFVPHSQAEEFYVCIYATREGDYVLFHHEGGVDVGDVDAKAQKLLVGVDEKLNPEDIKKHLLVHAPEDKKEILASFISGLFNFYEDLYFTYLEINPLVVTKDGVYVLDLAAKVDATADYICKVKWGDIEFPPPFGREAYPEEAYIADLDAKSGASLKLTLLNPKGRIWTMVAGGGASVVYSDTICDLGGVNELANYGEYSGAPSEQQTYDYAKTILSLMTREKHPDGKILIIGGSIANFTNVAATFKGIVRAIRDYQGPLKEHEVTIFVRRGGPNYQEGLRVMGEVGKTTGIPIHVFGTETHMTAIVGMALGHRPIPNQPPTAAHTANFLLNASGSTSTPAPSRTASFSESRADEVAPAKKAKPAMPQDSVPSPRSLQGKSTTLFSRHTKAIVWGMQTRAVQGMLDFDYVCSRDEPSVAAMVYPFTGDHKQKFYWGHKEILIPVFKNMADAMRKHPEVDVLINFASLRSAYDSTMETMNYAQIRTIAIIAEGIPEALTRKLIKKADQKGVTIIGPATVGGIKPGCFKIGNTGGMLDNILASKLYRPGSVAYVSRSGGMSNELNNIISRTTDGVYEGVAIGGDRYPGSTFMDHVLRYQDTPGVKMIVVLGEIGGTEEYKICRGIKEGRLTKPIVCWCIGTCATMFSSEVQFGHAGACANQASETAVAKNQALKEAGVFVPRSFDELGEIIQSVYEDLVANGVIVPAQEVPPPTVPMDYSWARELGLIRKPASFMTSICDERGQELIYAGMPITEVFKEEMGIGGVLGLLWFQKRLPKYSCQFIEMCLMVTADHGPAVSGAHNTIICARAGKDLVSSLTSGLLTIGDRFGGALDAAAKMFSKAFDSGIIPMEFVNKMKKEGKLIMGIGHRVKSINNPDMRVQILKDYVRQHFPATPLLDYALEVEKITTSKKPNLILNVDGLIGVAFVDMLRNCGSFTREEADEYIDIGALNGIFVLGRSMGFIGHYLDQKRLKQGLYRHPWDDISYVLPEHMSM

[3] = target: T3, ATP-citrate synthase (Rattus norvegicus, UniProt P16638); assay: Inhibition of rat liver ACLY by fluorimetric analysis
T3 sequence (P16638 whole entry): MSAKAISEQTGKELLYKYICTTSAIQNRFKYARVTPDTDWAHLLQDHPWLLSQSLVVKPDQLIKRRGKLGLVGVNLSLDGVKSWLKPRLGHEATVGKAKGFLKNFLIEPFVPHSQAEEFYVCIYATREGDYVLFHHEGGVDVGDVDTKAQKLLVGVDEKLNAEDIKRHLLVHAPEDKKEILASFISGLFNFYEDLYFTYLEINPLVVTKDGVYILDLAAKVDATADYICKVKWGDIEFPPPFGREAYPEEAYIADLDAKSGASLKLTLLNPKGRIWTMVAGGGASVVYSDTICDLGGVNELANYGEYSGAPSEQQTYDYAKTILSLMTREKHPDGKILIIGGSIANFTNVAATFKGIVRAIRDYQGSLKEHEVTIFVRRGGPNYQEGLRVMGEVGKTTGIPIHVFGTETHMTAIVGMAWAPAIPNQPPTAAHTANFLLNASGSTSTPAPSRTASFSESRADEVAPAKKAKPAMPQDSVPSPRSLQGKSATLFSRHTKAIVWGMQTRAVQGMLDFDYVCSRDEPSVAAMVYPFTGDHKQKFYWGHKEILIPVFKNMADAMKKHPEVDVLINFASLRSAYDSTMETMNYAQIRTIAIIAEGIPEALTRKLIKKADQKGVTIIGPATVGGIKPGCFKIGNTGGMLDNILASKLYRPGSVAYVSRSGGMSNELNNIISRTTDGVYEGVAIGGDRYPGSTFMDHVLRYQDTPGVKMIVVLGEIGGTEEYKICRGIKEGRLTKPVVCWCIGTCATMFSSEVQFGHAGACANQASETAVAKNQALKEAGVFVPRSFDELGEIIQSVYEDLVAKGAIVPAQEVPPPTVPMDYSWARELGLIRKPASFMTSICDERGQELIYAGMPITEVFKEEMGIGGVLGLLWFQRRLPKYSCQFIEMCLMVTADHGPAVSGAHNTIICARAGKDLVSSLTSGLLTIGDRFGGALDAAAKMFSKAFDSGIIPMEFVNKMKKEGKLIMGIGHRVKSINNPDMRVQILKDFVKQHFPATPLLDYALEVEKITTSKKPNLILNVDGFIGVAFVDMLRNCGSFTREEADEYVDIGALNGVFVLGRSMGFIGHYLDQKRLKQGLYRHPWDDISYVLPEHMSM

[4] = target: T4, Fatty acid synthase (Homo sapiens, UniProt P49327); assay: Inhibition of FASN in human HepG2 cells; format: cell-based
Target sequence in this assay (P49327 whole entry): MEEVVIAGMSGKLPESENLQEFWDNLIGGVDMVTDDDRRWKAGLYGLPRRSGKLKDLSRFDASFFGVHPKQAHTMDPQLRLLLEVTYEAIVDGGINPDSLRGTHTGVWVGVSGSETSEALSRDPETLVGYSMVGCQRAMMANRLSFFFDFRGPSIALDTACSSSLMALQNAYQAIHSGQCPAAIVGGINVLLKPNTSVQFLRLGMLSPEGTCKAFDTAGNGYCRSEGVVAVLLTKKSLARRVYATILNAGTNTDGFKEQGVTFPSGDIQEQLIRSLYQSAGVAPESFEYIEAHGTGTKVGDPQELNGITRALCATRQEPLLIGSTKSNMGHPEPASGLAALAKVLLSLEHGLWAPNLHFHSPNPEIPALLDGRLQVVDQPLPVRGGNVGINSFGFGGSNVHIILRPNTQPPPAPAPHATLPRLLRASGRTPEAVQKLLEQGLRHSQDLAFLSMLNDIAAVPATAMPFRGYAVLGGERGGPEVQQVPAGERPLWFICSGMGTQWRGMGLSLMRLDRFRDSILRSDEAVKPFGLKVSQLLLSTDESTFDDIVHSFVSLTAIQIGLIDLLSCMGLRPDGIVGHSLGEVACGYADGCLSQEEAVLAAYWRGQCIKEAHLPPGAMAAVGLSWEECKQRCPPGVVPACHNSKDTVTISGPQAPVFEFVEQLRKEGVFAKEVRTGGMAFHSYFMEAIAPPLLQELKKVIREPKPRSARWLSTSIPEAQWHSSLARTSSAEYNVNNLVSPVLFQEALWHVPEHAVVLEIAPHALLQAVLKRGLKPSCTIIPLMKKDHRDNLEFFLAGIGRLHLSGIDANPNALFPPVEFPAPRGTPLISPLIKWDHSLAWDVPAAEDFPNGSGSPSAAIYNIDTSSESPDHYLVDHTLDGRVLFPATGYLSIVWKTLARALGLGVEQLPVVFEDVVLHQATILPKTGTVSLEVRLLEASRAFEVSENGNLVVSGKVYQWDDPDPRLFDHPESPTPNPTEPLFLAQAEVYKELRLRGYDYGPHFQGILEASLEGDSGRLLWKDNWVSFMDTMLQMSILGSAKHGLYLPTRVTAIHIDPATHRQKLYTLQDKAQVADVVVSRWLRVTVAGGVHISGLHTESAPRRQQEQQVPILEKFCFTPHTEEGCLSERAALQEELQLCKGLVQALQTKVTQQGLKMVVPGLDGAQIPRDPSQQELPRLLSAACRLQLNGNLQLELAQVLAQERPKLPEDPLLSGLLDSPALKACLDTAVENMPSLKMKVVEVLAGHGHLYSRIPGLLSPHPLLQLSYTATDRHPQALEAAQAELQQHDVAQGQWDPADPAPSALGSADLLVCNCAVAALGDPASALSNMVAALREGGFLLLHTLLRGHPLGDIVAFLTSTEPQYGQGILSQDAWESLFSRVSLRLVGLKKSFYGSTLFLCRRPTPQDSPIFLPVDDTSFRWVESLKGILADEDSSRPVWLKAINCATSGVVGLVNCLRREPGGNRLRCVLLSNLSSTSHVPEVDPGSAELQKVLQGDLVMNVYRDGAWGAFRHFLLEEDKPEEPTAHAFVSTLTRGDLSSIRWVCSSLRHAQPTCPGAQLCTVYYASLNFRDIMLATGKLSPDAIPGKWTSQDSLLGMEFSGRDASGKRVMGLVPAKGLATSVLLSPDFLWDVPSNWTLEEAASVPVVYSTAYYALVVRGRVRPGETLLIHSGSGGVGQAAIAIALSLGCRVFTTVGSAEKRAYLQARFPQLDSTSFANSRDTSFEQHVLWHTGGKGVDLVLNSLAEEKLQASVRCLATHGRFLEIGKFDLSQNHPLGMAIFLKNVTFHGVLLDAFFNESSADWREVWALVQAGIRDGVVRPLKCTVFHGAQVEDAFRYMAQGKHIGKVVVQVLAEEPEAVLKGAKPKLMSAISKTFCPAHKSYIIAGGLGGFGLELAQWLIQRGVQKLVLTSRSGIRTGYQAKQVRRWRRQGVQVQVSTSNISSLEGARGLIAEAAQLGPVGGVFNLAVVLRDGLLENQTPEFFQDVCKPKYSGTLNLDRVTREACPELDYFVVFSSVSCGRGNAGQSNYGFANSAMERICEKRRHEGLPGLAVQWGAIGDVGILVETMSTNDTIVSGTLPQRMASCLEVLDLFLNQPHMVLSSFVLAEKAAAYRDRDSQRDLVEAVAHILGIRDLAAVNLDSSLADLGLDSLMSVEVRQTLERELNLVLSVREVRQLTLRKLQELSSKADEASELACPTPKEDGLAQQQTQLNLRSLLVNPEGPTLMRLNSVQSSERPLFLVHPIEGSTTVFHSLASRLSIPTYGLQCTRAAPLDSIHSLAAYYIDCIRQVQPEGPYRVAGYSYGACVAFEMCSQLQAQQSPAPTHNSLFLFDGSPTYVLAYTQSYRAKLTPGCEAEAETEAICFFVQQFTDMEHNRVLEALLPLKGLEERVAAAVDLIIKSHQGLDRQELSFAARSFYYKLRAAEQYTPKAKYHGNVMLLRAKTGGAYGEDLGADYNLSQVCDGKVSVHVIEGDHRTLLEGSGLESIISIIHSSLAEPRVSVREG

[5] = Competitive inhibition of Escherichia coli ACC carboxyltransferase activity using malonyl coA as substrate
[6] = system: Escherichia coli; assay: Ratio of biotin Ki to compound Ki for Escherichia coli ACC
[7] = target: T4, Fatty acid synthase; assay: Inhibition of FASN in human SKBR3 cells at 29 uM after 3 mins by spectrophotometric analysis relative to control; format: cell-based; settings: SK-BR-3
Target sequence in this assay (P49327 whole entry, looked up): as the sequence (P49327 whole entry) above

[8] = Inhibition of rat liver ACC
[9] = target: T3, ATP-citrate synthase
[10] = target: T4, Fatty acid synthase; assay: Inhibition of human recombinant FASN thioesterase domain
Target sequence in this assay (P49327 whole entry): as above

[11] = Inhibition of duck liver FASN ketoreductase activity; parameters: species or system Anas platyrhynchos
[12] = Inhibition of duck liver FASN; parameters: species or system Anas platyrhynchos
[13] = target: T1, Fatty acid synthase; assay: Inhibition of chicken liver FASN
[14] = target: T4, Fatty acid synthase; settings: SK-BR-3, 179 uM
Target sequence in this assay (P49327 whole entry, looked up): as the sequence (P49327 whole entry) above
Description: Inhibition of FASN in human SKBR3 cells at 179 uM

[15] = target: T4, Fatty acid synthase; settings: SK-BR-3, 22.4 uM
Target sequence in this assay (P49327 whole entry, looked up): as the sequence (P49327 whole entry) above
Description: Inhibition of FASN in human SKBR3 cells at 22.4 uM

[16] = system: HepG2; assay: Cytotoxicity against human HepG2 cells by MTT assay; format: functional, cell-based
[17] = Inhibition of rat liver ACC using acetyl coA as substrate and [14C]NaHCO3 incubated for 30 mins prior to substrate addition by liquid scintillation counting

T1 sequence (P12276 whole entry): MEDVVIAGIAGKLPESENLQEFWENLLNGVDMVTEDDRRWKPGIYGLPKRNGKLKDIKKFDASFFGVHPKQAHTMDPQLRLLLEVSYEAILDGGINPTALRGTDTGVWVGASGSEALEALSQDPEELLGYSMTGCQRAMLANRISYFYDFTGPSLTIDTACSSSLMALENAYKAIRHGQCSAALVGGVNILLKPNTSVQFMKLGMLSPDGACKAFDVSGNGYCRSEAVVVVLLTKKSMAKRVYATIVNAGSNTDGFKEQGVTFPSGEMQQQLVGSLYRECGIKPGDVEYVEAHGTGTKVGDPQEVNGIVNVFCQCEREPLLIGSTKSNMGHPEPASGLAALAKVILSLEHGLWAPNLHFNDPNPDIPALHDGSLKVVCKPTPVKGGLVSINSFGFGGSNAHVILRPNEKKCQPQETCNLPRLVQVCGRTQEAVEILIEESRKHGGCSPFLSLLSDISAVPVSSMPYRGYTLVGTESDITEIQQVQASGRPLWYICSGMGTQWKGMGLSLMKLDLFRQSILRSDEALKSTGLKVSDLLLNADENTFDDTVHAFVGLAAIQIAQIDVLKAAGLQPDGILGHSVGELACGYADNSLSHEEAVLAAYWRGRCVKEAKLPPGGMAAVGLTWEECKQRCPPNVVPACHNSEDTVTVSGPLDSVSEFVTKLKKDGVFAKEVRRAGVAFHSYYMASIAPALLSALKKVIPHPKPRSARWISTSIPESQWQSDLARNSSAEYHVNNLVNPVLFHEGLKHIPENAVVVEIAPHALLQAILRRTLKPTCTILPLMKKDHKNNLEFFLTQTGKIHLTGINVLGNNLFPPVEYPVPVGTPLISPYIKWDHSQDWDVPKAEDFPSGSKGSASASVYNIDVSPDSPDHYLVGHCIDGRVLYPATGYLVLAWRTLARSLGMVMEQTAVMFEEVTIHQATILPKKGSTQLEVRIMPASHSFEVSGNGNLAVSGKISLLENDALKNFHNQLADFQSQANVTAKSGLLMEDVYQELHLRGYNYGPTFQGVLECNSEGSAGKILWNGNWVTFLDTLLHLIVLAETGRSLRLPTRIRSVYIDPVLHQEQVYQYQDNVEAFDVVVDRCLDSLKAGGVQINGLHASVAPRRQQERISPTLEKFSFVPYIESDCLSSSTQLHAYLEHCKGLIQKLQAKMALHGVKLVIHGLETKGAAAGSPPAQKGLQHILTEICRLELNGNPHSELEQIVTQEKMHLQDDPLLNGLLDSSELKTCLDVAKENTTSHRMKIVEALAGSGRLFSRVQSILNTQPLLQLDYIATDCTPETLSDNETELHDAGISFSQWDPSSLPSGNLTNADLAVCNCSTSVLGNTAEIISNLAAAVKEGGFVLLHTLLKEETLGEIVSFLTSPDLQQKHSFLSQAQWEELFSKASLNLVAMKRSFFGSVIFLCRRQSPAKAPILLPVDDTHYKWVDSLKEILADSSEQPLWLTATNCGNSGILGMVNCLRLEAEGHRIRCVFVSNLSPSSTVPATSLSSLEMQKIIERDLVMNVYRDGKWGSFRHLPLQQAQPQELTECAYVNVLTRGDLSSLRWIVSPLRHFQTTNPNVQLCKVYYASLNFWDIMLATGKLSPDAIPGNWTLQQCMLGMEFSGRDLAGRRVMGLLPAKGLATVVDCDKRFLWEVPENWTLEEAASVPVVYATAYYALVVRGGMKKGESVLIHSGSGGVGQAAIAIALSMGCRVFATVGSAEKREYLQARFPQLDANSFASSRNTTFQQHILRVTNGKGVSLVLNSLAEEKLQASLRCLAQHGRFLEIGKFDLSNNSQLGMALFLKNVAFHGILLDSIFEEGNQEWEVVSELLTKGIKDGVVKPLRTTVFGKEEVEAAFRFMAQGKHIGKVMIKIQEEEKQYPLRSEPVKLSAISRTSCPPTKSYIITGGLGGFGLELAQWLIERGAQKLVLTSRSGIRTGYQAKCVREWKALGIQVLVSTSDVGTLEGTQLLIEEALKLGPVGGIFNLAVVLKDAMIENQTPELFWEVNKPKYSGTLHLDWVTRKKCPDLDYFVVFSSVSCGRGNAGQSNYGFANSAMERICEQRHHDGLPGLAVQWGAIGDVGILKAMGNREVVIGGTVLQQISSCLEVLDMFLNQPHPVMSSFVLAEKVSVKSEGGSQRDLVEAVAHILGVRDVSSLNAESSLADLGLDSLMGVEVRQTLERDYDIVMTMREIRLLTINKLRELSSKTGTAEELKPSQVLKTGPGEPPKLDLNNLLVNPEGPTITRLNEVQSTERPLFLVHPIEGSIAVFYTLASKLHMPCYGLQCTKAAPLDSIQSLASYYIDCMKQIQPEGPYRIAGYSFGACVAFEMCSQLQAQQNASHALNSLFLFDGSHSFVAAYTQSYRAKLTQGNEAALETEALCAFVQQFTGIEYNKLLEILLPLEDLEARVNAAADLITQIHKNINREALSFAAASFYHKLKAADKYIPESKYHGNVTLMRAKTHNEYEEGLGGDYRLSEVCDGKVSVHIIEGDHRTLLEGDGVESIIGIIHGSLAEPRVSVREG

Compound: H-KNPQLR-OH
- IC50 [1]: 80 µM

Compound: O=C(O)C[C@](O)(C[C@@H](O)CCCCCn1c2ccccc2c2cc(Cl)ccc21)C(=O)O (racemic)
- Ki [2]: 0.71 µM

Compound: O=C1C[C@@](O)(C(=O)O)[C@@H](C(=O)O)O1
- Ki [3]: 50 µM

Compound: CC(C)(COP(=O)(O)OP(=O)(O)OC[C@H]1O[C@@H](n2cnc3c(N)ncnc32)[C@H](O)[C@@H]1OP(=O)(O)O)[C@H](O)C(=O)NCCC(=O)NCCSC(=O)CC(=O)N1C(=O)N[C@@H]2[C@H](CCCCC(=O)OCc3ccccc3)SC[C@@H]21
- Ki [5]: 23 µM
- Ratio Ki [6]: 350

Compound: CC(C)(C)c1ccc(N2C[C@@H](COc3ccc(C(=O)SCCNC(=O)CCNC(=O)[C@H](O)C(C)(C)COP(=O)(O)OP(=O)(O)OC[C@H]4O[C@@H](n5cnc6c(N)ncnc65)[C@H](O)[C@@H]4OP(=O)(O)O)cc3)CC2=O)cc1
- Ki [8]: 69.2 µM

Compound: H-EITPEKNPQLR-OH
- IC50 [10]: 10 µM
- IC50 [1]: 27 µM

Compound: C=C/C(C)=C/[C@]1(C)SC(=O)C(C)=C1O
- IC50 [4]: 208 µM

Compound: O=c1c(O[C@@H]2O[C@@H](CO)[C@H](O)[C@H]2O)c(-c2ccc(O)c(O)c2)oc2cc(O)cc(O)c12 [AVICULARIN]
- IC50 [13]: 6.15 µM

Compound: Cc1c(-c2cc3ccccc3o2)oc(=O)c(C)c1O
- Ki [8]: 3.3 µM

Compound: CCCCC/C=C\C/C=C\C/C=C\CCCCC(=O)O
- inhibition [14]: 78%
- inhibition [15]: 41%

Compound: O=c1cc(-c2ccc(O)c(O)c2)oc2cc(O)cc(O)c12 [LUTEOLIN]
- IC50 [12]: 2.52 µM
- IC50 [16]: 71.2 µM

Compound: CC(Cc1ccc(O)c(O)c1)C(C)Cc1ccc(O)c(O)c1 (stereo not drawn) [NORDIHYDROGUAIARETIC ACID]
- IC50 [11]: 427 µM
- IC50 [12]: 9.3 µM

Compound: O=C(O)C[C@@](O)(C(=O)O)[C@H](O)C(=O)O
- Ki [3]: 8 µM

Compound: Cc1cn(-c2cc(Cl)ccc2CCCCCC[C@H](O)C[C@@](O)(CC(=O)O)C(=O)O)cc1C (stereo in doubt; 135)
- Ki [2]: 0.34 µM

Compound: O=C(O[C@@H]1Cc2c(O)cc(O)cc2O[C@H]1c1ccc(O)c(O)c1)c1cc(O)c(O)c(O)c1 [(-)-CATECHINGALLATE]
- IC50 [11]: 30.1 µM
- IC50 [12]: 3.4 µM

More lines, now with the values ahead:

- IC50 [4]: 96.8 µM
Compound: C=C/C(C)=C/[C@]1(C)SC(=O)C=C1O

- inhibition [7]: 69%
Compound: O=C(Oc1ccc(OC(=O)c2cc(O)c(O)c(O)c2)c2ccccc12)c1cc(O)c(O)c(O)c1

- Ki [2]: 0.62 µM
Compound: O=C(O)[C@H](O)[C@](O)(C[C@@H](O)CCCCCCc1ccc(Cl)cc1Cl)C(=O)O (racemic)

- IC50 [9]: 7 µM
Compound: O=C1C(c2ccc(O)c(O)c2)=c2c(c3c(n2CCc2ccc(O)cc2)=C(c2ccc(O)c(O)c2)C(=O)c2cc(O)c(O)cc2-3)-c2cc(O)c(O)cc21 [PURPURONE]

- IC50 [11]: 120 µM
- IC50 [12]: 8.5 µM
Compound: Oc1ccc(/C=C/c2cc(O)cc(O)c2)cc1 [RESVERATROL]

- IC50 [17]: 29 µM
Compound: CC(C)(CCCCCC(O)CCCCCC(C)(C)C(=O)SCCNC(=O)CCNC(=O)[C@H](O)C(C)(C)COP(=O)(O)OP(=O)(O)OC[C@H]1O[C@@H](n2cnc3c(N)ncnc32)[C@H](O)[C@@H]1OP(=O)(O)O)C(=O)O (stereo partly drawn)
